Measurements published in EP0767786B1, “7-ETHER-TAXOL ANALOGS, ANTINEOPLASTIC USE AND PHARMACEUTICAL COMPOSITIONS CONTAINING THEM” (PHARMACIA & UPJOHN COMPANY, priority 1994, dated 1996).
Values after ≈ are worked out from the molar mass of the structure shown. Read-outs that look alike come from different tables or passages of the source.

Legend:
[1] = tested on: L1210 mouse leukemia carcinoma cells; assay: cytotoxicity / inhibition of cell proliferation in L1210 leukemia cells in culture; format: cell-based; settings: drug concentration required to inhibit cell proliferation to 50% of that of untreated control cells; for IC50: Mus musculus, L1210, read-out: L1210 (IC50 ug/ml)
Description: (§1) The biological activity of the 7-deoxy-7-ether-taxol compounds (Formula I) of the invention has been confirmed using well known procedures.
The biological activity of the compounds of this invention has been further confirmed using well known procedures against L1210 leukemia and the results set forth in Table I. The results were obtained using standard well known procedure (Li, L.H.; Kuentzel, S.L.; Murch, L.L.; Pschigoga, L.M.; and W.C. Krueger, "Comparative biological and biochemical effects of nogalamycin and its analogs on L1210 leukemia," Cancer Res. 39:4816-4822 (1979)). The results are expressed as an IC50 which is the drug concentration required to inhibit cell proliferation to 50% of that of untreated control cells. Lower numbers indicated greater activity.

[2] = tested on: A2780 human ovarian carcinoma; assay: activity against A2780 human ovarian carcinoma cells; format: cell-based; settings: for IC50: read-out: A2780 (IC50 ug/ml)
Description: The biological activity of the compounds of this invention has been further confirmed using well known procedures against A2780 human ovarian carcinoma and the results set forth in Table II. The results were obtained using standard well known procedure (Perez, R. P.; O'Dwyer, P. J.; Handel, L. M.; Ozols, R. F.; Hamilton, T. C. Int. J. Cancer 1991, 48, 265, Alley, M.C.; Scudiero, D. A.; Monks, A.; Hursey, M. L; Czerwinski, M. J.; Fine, D. L.; et al. Cancer Res 1988, 48, 589).

[3] = tested on: L1210 mouse leukemia carcinoma cells; assay: cytotoxicity / inhibition of cell proliferation in L1210 leukemia cells in culture; format: cell-based
tubulin = assay: in vitro tubulin polymerization assay (after Gaskin et al.); format: biochemical; settings: in vitro at 20°C, compared with taxol
Description: as §1

| Molecule | L1210 (IC50 ug/ml) [1] [µg/mL] | A2780 (IC50 ug/ml) [2] [µg/mL] | further results |
| --- | --- | --- | --- |
| CC(=O)OC1C(=O)C2(C)C(OCOCc3ccccc3)CC3OCC3(OC(C)=O)C2C(OC(=O)c2ccccc2)C2(O)CC(OC(=O)C(O)C(NC(=O)OC(C)(C)C)c3ccccc3)C(C)=C1C2(C)C (stereo not drawn) [Compound 10, 7-(O-benzyloxymethyl)-13-(N-Boc-β-phenylisoserinyl)-baccatin III] | 0.001 |  |  |
| COC1CC2OCC2(OC(C)=O)C2C(OC(=O)c3ccccc3)C3(O)CC(OC(=O)C(O)C(NC(=O)NC(C)(C)C)c4ccccc4)C(C)=C(C(OC(C)=O)C(=O)C12C)C3(C)C (centres unmarked) [Compound 56, 13-(N-(t-butylaminocarbonyl)-b-phenylisoserinyl)-baccatin III 7-O-methyl ether] |  | 0.00034 |  |
| CSCOC1CC2OCC2(OC(C)=O)C2C(OC(=O)c3ccccc3)C3(O)CC(OC(=O)C(O)C(NC(=O)NC(C)(C)C)c4ccccc4)C(C)=C(C(OC(C)=O)C(=O)C12C)C3(C)C (centres unmarked) [Compound 55, 13-(N-(t-butylaminocarbonyl)-b-phenylisoserinyl)-baccatin III 7-O-methylthiomethyl ether] |  | 0.00025 |  |
| 13-(N-Boc-2'-TES-b-phenyl isoserinyl)-baccatin III 7-O-methyl ether [Compound 58] |  | 0.00038 |  |
| CCOCOC1CC2OCC2(OC(C)=O)C2C(OC(=O)c3ccccc3)C3(O)CC(OC(=O)C(O)C(NC(=O)NC(C)(C)C)c4ccccc4)C(C)=C(C(OC(C)=O)C(=O)C12C)C3(C)C (stereo not drawn) [Compound 14, 7-(O-ethoxymethyl)-13-(N-(t-butylaminocarbonyl)-β-phenylisoserinyl)-baccatin III] | 0.0014 | 0.00007 |  |
| CSCOC1CC2OCC2(OC(C)=O)C2C(OC(=O)c3ccccc3)C3(O)CC(OC(=O)C(O)C(NC(=O)OC(C)(C)C)c4ccccc4)C(C)=C(C(OC(C)=O)C(=O)C12C)C3(C)C (stereo not drawn) [Compound 44, 7-(O-methylthiomethyl)-13-(N-Boc-β-phenylisoserinyl)-baccatin III] |  | 0.00037 |  |
| 7-[O-(2,2,2-trichloroethoxy)methyl]-13-(N-Boc-β-phenyl isoserinyl)-baccatin III [Compound 21] | 0.0024 |  |  |
| CC(=O)O[C@H]1C(=O)[C@@]2(C)[C@H]([C@H](OC(=O)c3ccccc3)[C@]3(O)C[C@H](OC(=O)[C@H](O)[C@@H](NC(=O)c4ccccc4)c4ccccc4)C(C)=C1C3(C)C)[C@]1(OC(C)=O)CO[C@@H]1C[C@@H]2O [taxol, Taxol] |  |  | IC50 [2]: 0.0018 µg/mL (≈ 2.11 nM); IC90 ([3]; read-out: IC90 (90% growth inhibitory concentration)): 17 ng/mL (≈ 19.9 nM); IC50 [1]: 0.017 µg/mL (≈ 19.9 nM) |
| COCOC1CC2OCC2(OC(C)=O)C2C(OC(=O)c3ccccc3)C3(O)CC(OC(=O)C(O)C(NC(=O)OC(C)(C)C)c4ccccc4)C(C)=C(C(OC(C)=O)C(=O)C12C)C3(C)C (stereo not drawn) [Compound 8, 7-(O-methoxymethyl)-13-(N-Boc-2'-β-phenylisoserinyl)-baccatin III] | 0.0011 |  | IC90 (90% growth inhibitory concentration) [3]: 0.0011 micrograms/ml |
| 7-[O-(2,2,2-trichloroethoxy)methoxymethyl]-13-(N-Boc-β-phenyl isoserinyl)-baccatin III [Compound 22] | 0.0047 |  |  |
| CC(=O)OC1C(=O)C2(C)C(OCSc3ccccc3)CC3OCC3(OC(C)=O)C2C(OC(=O)c2ccccc2)C2(O)CC(OC(=O)C(O)C(NC(=O)c3ccccc3)c3ccccc3)C(C)=C1C2(C)C (centres unmarked) [Compound 46, 7-(O-phenylthiomethyl) taxol] |  | 0.0016 |  |
| COC1CC2OCC2(OC(C)=O)C2C(OC(=O)c3ccccc3)C3(O)CC(OC(=O)C(O)C(NC(=O)c4ccccc4)c4ccccc4)C(C)=C(C(OC(C)=O)C(=O)C12C)C3(C)C (centres unmarked) [Compound 47, 7-O-methyl Taxol] |  | 0.0007 | A2780 (IC50 ug/ml) ([2]; retest): 0.00044 µg/mL |
| CC(=O)O[C@@]12CO[C@@H]1C[C@H](O)[C@@]1(C)C(=O)[C@H](O)C3=C(C)[C@@H](OC(=O)[C@H](O)[C@@H](NC(=O)OC(C)(C)C)c4ccccc4)C[C@@](O)([C@@H](OC(=O)c4ccccc4)[C@H]21)C3(C)C [taxotere, reference compound] |  |  | IC50 [2]: 0.0007 µg/mL (≈ 0.866 nM); IC50 [1]: 0.004 µg/mL (≈ 4.95 nM) |
| CSCOC1CC2OCC2(OC(C)=O)C2C(OC(=O)c3ccccc3)C3(O)CC(OC(=O)C(O)C(NC(=O)c4ccccc4)c4ccccc4)C(C)=C(C(OC(C)=O)C(=O)C12C)C3(C)C (centres unmarked) [Compound 42, 7-(O-methylthiomethyl) taxol] |  | 0.00047 |  |
| CCSC(C)OC1CC2OCC2(OC(C)=O)C2C(OC(=O)c3ccccc3)C3(O)CC(OC(=O)C(O)C(NC(=O)c4ccccc4)c4ccccc4)C(C)=C(C(OC(C)=O)C(=O)C12C)C3(C)C (centres unmarked) [Compound 49, 7-[O-ethyl(1-thioethyl)] Taxol] |  | 0.0057 |  |
| COCCOCOC1CC2OCC2(OC(C)=O)C2C(OC(=O)c3ccccc3)C3(O)CC(OC(=O)C(O)C(NC(=O)OC(C)(C)C)c4ccccc4)C(C)=C(C(OC(C)=O)C(=O)C12C)C3(C)C (stereo not drawn) [Compound 6, 7-(O-methoxyethoxymethyl)-13-(N-Boc-β-phenylisoserinyl)-baccatin III] | 0.0023 |  |  |
| COCOC1CC2OCC2(OC(C)=O)C2C(OC(=O)c3ccccc3)C3(O)CC(OC(=O)C(O)C(NC(=O)NC(C)(C)C)c4ccccc4)C(C)=C(C(OC(C)=O)C(=O)C12C)C3(C)C (stereo not drawn) [Compound 27, 7-(O-methoxymethyl)-13-(N-(t-butylaminocarbonyl)-β-phenylisoserinyl)-baccatin III] |  | 0.00004 | induce tubulin polymerization in vitro (tubulin): able to induce tubulin polymerization in vitro at 20 °C in a manner very similar to taxol |
| CCOCOC1CC2OCC2(OC(C)=O)C2C(OC(=O)c3ccccc3)C3(O)CC(OC(=O)C(O)C(NC(=O)OC(C)(C)C)c4ccccc4)C(C)=C(C(OC(C)=O)C(=O)C12C)C3(C)C (stereo not drawn) [Compound 4, 7-(O-ethoxymethyl)-13-(N-Boc-β-phenylisoserinyl)-baccatin III] |  | 0.0007 | induce tubulin polymerization in vitro (tubulin): able to induce tubulin polymerization in vitro at 20 °C in a manner very similar to taxol |
